Laboratory results taken from PMC9230803, “Synthesis and Antiviral Properties against SARS-CoV-2 of Epoxybenzooxocino[4,3-b]Pyridine Derivatives” (Molecules, 2022).
≈ marks a conversion by molar mass, not a printed value. Where two headings read alike, the source gives them in different places.

What was measured:
Vero E6 cells = assay: cells; assay type: cell-based; details: Chlorocebus sabaeus, Vero C1008, upper limit of concentrations tested 200 µg/mL, read-out: IC50 (the source's name)
SARS-CoV-2 virus = assay: microbe, parasite or virus in culture; assay type: cell-based; details: for inhibition of virus-induced CPE development / virus replication (in words): any concentration up to the tested limit of 200 µg/mL; for selectivity index (SI): IC50/EC50 in Vero E6 cells
[1] = cytotoxicity, uninfected Vero E6 cells, MTT
[2] = Severe acute respiratory syndrome coronavirus 2, Vero C1008, SARS-CoV-2 in Vero E6 cells, CPE-positive wells reduced by half, upper limit tested 200 µg/mL, read-out: EC50
[3] = SARS-CoV-2 in Vero E6 cells, CPE-positive wells reduced by half, upper limit tested 200 µg/mL

Structure (SMILES)	CC50 (Vero E6 cells; [1]) [µg/mL]	EC50 (SARS-CoV-2 virus; [2]) [µg/mL]	inhibition of virus-induced CPE development / virus replication (in words) (SARS-CoV-2 virus)	selectivity index (SI) (SARS-CoV-2 virus)	EC50 (SARS-CoV-2 virus; [3]) [µg/mL]	CC50 (Vero E6 cells; […]) [µg/mL]	EC50 (SARS-CoV-2 virus; Severe acute respiratory syndrome coronavirus 2, Vero C1008) [µg/mL]	wells presenting the CPE (SARS-CoV-2 virus; 6a at 0.82 μg/mL, ten wells per concentration)	wells showing the CPE (SARS-CoV-2 virus; 6a at 2.47 μg/mL, ten wells per concentration)
C/C(=N\NC(=O)c1ccccc1O)c1cc2c(nc1C)CC1OC2(C)Oc2ccccc21 (stereo not shown) [Compound 4b, (E)-N′-(1-(2,5-dimethyl-11,12-dihydro-5H-5,11-epoxybenzo[7,8]oxocino[4,3-b]pyridin-3-yl)ethylidene)-2-hydroxybenzohydrazide]	> 200	> 200	did not affect the development of CPE	–	–	–	–	–	–
Cc1nc2c(cc1C(=O)/C=C1\Nc3ccc([N+](=O)[O-])cc3OC1=O)C1(C)Oc3ccccc3C(C2)O1 (stereo not shown) [Compound 6c, (Z)-3-(2-(2,5-dimethyl-11,12-dihydro-5H-5,11-epoxybenzo[7,8]oxocino[4,3-b]pyridin-3-yl)-2-oxoethylidene)-7-nitro-3,4-dihydro-2H-benzo[b][1,4]oxazin-2-one]	> 200	> 200	did not affect the development of CPE	–	–	–	–	–	–
CC(=O)c1cc2c(nc1C)CC1OC2(C)Oc2ccccc21 (stereo not shown) [Compound 3, 1-(2,5-dimethyl-11,12-dihydro-5H-5,11-epoxybenzo[7,8]oxocino[4,3-b]pyridin-3-yl)ethan-1-one]	131 (≈ 444 µM)	> 200	did not affect the development of CPE	–	–	–	–	–	–
CCN(CC)CCOc1ccc2c(c1)C(=O)c1cc(OCCN(CC)CC)ccc1-2.Cl [Tilorone, 2,7-bis[2-(diethylamino)ethoxy]fluoren-9-one hydrochloride, reference compound]	–	4.29	–	1.8	4.3	–	–	–	–
Cc1nc2c(cc1C(=O)/C=C1\Nc3ccccc3OC1=O)C1(C)Oc3ccccc3C(C2)O1 (stereo not shown) [Compound 6b, (Z)-3-(2-(2,5-dimethyl-11,12-dihydro-5H-5,11-epoxybenzo[7,8]oxocino[4,3-b]pyridin-3-yl)-2-oxoethylidene)-3,4-dihydro-2H-benzo[b][1,4]oxazin-2-one]	> 200	> 200	did not affect the development of CPE	–	–	–	–	–	–
CC(=NNC(=O)c1ccncc1)c1cc2c(nc1C)CC1OC2(C)Oc2ccccc21 (stereo not shown) [Compound 4a, (E,Z)-N′-(1-(2,5-dimethyl-11,12-dihydro-5H-5,11-epoxybenzo[7,8]oxocino[4,3-b]pyridin-3-yl)ethylidene)isonicotinohydrazide]	> 200	> 200	did not affect the development of CPE	–	–	–	–	–	–
Cc1nc2c(cc1C(=O)/C=C(\O)C(=O)O)C1(C)Oc3ccccc3C(C2)O1 (stereo not shown) [Compound 5, (Z)-4-(2,5-dimethyl-11,12-dihydro-5H-5,11-epoxybenzo[7,8]oxocino[4,3-b]pyridin-3-yl)-2-hydroxy-4-oxobut-2-enoic acid]	–	–	did not affect the development of CPE	–	–	> 200	> 200	–	–
Cc1nc2c(cc1C(=O)/C=C1\Nc3ccccc3NC1=O)C1(C)Oc3ccccc3C(C2)O1 (stereo not shown) [Compound 6a, (Z)-3-(2-(2,5-dimethyl-11,12-dihydro-5H-5,11-epoxybenzo[7,8]oxocino[4,3-b]pyridin-3-yl)-2-oxoethylidene)-3,4-dihydroquinoxalin-2(1H)-one]	6 (≈ 13.7 µM)	2.23 (≈ 5.07 µM)	inhibition of CPE development was found	2.7	2.2 (≈ 5.01 µM)	–	–	Eight of ten	one in ten
